From ChEMBL document CHEMBL2311530, “The development of potential new fluorine-18 labelled radiotracers for imaging the GABA(A) receptor” (Bioorg Med Chem Lett, 2013)

Legend:
[1] = Displacement of […]FMZ from Wistar rat cerebellum GABAA receptor by competitive radioligand assay; assay type: tissue-based
[2] = Lipophilicity, log D of the compound in n-octanol at pH 7.4 by shake flask method; assay type: physicochemical

Compound	Ki [1]	logD [2]
CN1Cc2c(C(=O)OC(C)(C)C)ncn2-c2nccc(F)c2C1=O	1.3 nM	
CN1Cc2c(C(=O)OC(C)(C)C)ncn2-c2ccnc(F)c2C1=O	3.9 nM	
CCOC(=O)c1ncn2c1CN(C)C(=O)c1nc(F)ccc1-2	14 nM	
CCOC(=O)c1ncn2c1[C@@H]1CCCN1C(=O)c1cc(F)ccc1-2	2.3 nM	1.85
O=C(NCCCF)c1ncn2c1[C@@H]1CCCN1C(=O)c1c(Br)cccc1-2	> 10000 nM	
O=C(OCCCF)c1ncn2c1[C@@H]1CCCN1C(=O)c1c(Br)cccc1-2	3.2 nM	
O=C(NCCF)c1ncn2c1[C@@H]1CCCN1C(=O)c1c(Br)cccc1-2	> 10000 nM	
O=C(OCCF)c1ncn2c1[C@@H]1CCCN1C(=O)c1c(Br)cccc1-2	9.4 nM	
CN1Cc2c(C(=O)OC(C)(C)C)ncn2-c2cccc(OCCF)c2C1=O	1.1 nM	
CN1Cc2c(C(=O)OC(C)(C)C)ncn2-c2ccc(OCCF)cc2C1=O	0.52 nM	1.17
CCOC(=O)c1ncn2c1CN(C)C(=O)c1cc(OCCF)ccc1-2	2.3 nM	1.62
CC(C)OC(=O)c1ncn2c1CN(C)C(=O)c1c(F)cccc1-2	0.42 nM	
CN1Cc2c(C(=O)OC(C)(C)C)ncn2-c2cccc(F)c2C1=O	0.76 nM	0.69
CC(C)(C)OC(=O)c1ncn2c1CN(CCF)C(=O)c1cc(F)ccc1-2	8.9 nM	
CCOC(=O)c1ncn2c1CN(CCF)C(=O)c1cc(F)ccc1-2	13.5 nM	1.54
CN1Cc2c(C(=O)OC(C)(C)C)ncn2-c2ccc(F)cc2C1=O	1.9 nM	
CCOC(=O)c1ncn2c1CN(CC)C(=O)c1cc(F)ccc1-2	10.7 nM	1.65
CCOC(=O)c1ncn2c1CN(Cc1ccccc1)C(=O)c1cc(F)ccc1-2	2.9 nM	1.44
CN1Cc2c(C(=O)OCCCF)ncn2-c2ccc(F)cc2C1=O	> 10000 nM	0.68
CN1Cc2c(C(=O)NCCF)ncn2-c2ccc(F)cc2C1=O	> 10000 nM	
CN1Cc2c(C(=O)NCCCF)ncn2-c2ccc(F)cc2C1=O	> 10000 nM	
CN1Cc2c(C(=O)OCCF)ncn2-c2ccc(F)cc2C1=O	4 nM	1.12
CCOC(=O)c1ncn2c1CN(C)C(=O)c1c(F)cccc1-2	5.5 nM	1.25
CC(C)(C)OC(=O)c1ncn2c1[C@@H]1CCCN1C(=O)c1c(Br)cccc1-2 [BRETAZENIL]	0.3 nM	
CCOC(=O)c1ncn2c1CN(C)C(=O)c1cc(F)ccc1-2 [FLUMAZENIL]	1.3 nM	1.58
